Source: the supplement of paper PMC10307832

What was measured:
Assay in all cases: relative viability (nuclei count vs DMSO), 5 days (fraction); higher = more cells survive
[1] = compound: O=C(CCCCCCNC(=O)c1cnc(N(c2ccccc2)c2ccccc2)nc1)NO [Ricolinostat] + CC1(C)CCC(c2ccc(Cl)cc2)=C(CN2CCN(c3ccc(C(=O)NS(=O)(=O)c4ccc(N[C@H](CCN5CCOCC5)CSc5ccccc5)c(S(=O)(=O)C(F)(F)F)c4)cc3)CC2)C1 [Navitoclax] (partner 0.5 µM)
Outline: (§1)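 Cells from lung cancer lines were seeded into 1536-well plates and, one day later, dosed by pin tool. Treatments were either a single drug or a fixed dose of an anchor drug with five library-drug doses (not always all listed) in √10 steps. After 5 days, nuclei were stained in a one-step fixation (final 0.05% Triton X-100, 1% formaldehyde, 1 ug/ml Hoechst) and counted on 4× images, and relative viability is the treated-to-vehicle nuclei ratio, as the median of duplicate plates.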

TGX 221 + Tozasertib = compound: CC1=CN2C(=O)C=C(N=C2C(=C1)C(C)NC3=CC=CC=C3)N4CCOCC4 [TGX 221] + Cc1cc(Nc2cc(N3CCN(C)CC3)nc(Sc3ccc(NC(=O)C4CC4)cc3)n2)n[nH]1 [Tozasertib] (partner 0.1 µM)
Outline: as §1

Ricolinostat + AZD7762 = compound: O=C(CCCCCCNC(=O)c1cnc(N(c2ccccc2)c2ccccc2)nc1)NO [Ricolinostat] + NC(=O)Nc1cc(-c2cccc(F)c2)sc1C(=O)N[C@H]1CCCNC1 [AZD7762] (partner 0.2 µM)
Outline: as §1

[2] = compound: C1=CC=C(C(=C1)C2=CC=C(C=C2)C3=CSC4=C3C(=C(C(=O)N4)C#N)O)O + Cc1nc(NC(=O)N2CCC[C@H]2C(N)=O)sc1-c1ccnc(C(C)(C)C(F)(F)F)c1 [Alpelisib] (partner 2 µM)
Outline: as §1

Cell Line	relative viability ([1]; first compound 0.08 µM)	relative viability ([1]; first compound 0.253 µM)	relative viability ([1]; first compound 0.8 µM)	relative viability ([1]; first compound 2.53 µM)	relative viability (TGX 221 + Tozasertib; first compound 0.08 µM)	relative viability (TGX 221 + Tozasertib; first compound 0.253 µM)	relative viability (TGX 221 + Tozasertib; first compound 0.8 µM)	relative viability (TGX 221 + Tozasertib; first compound 2.53 µM)	relative viability (TGX 221 + Tozasertib; first compound 8 µM)	relative viability (Ricolinostat + AZD7762; first compound 0.08 µM)	relative viability (Ricolinostat + AZD7762; first compound 0.253 µM)	relative viability (Ricolinostat + AZD7762; first compound 0.8 µM)	relative viability (Ricolinostat + AZD7762; first compound 2.53 µM)	relative viability ([2]; first compound 0.8 µM)	relative viability ([2]; first compound 2.53 µM)	relative viability ([2]; first compound 8 µM)	relative viability ([2]; first compound 0.08 µM)	relative viability ([2]; first compound 0.253 µM)
LK-2	0.841	0.898	0.811	0.842	0.203	0.202	0.182	0.187	0.161	0.254	0.375	0.38	0.348	0.906	1	1.06	–	–
LOU-NH91	–	0.777	0.642	0.6	0.713	0.653	0.697	0.675	0.562	–	0.788	0.796	0.739	0.721	0.663	0.67	0.678	0.789
LU99A	0.782	0.701	0.603	0.491	0.24	0.274	0.258	0.282	0.276	0.324	0.378	0.253	0.159	0.538	0.507	0.527	0.613	0.5
LXF-289	0.904	0.927	0.914	0.878	0.215	0.235	0.201	0.202	0.114	1.07	1.07	1.11	1.06	1.06	1.05	0.965	1.02	0.969
NCI-H23	0.82	0.791	0.924	0.932	0.461	0.393	0.386	0.322	0.241	0.332	0.281	0.223	0.154	0.833	0.719	0.421	0.652	0.695
NCI-H322M	–	1.2	1.27	1.08	0.513	0.468	0.446	0.442	0.44	0.432	0.663	0.512	0.49	0.958	0.835	0.703	0.814	0.901
NCI-H441	0.77	0.411	0.798	0.357	0.605	0.569	0.737	0.611	0.695	0.982	1.06	0.924	0.801	–	0.75	0.816	–	0.773
NCI-H460	1.12	0.93	1.08	1.21	0.383	0.489	0.639	0.0964	0.131	0.589	0.582	0.587	0.322	0.596	0.588	0.387	–	0.67
NCI-H596	0.951	0.954	0.858	0.887	0.94	0.944	0.91	0.864	0.61	0.965	1.12	1.08	0.686	0.489	0.497	0.447	0.397	0.541
NCI-H647	0.806	1.12	1.09	1.09	0.284	0.219	0.312	0.285	0.122	0.35	0.359	0.322	0.241	1.11	1.19	1.34	0.559	1
NCI-H727	0.356	0.55	0.397	0.405	0.543	0.64	0.65	0.571	0.542	0.475	0.711	0.664	0.576	0.539	0.688	0.655	0.59	0.642
NCI-H838	0.97	1.13	1.19	0.967	0.276	0.257	0.282	0.247	0.192	0.827	0.941	0.963	0.958	1.03	0.924	0.989	0.66	0.97
NCI-H1355	–	0.916	0.887	0.747	0.541	0.564	0.621	0.483	0.382	0.689	0.853	0.674	0.575	0.899	0.829	0.663	0.927	1
NCI-H1395	–	1.13	1.32	1.27	0.712	0.697	0.713	0.603	0.569	–	0.362	0.395	0.37	1.16	1.09	0.967	–	1.17
NCI-H1437	1	1.07	1.02	0.831	0.383	0.406	0.404	0.361	0.311	1.12	0.977	1.16	1.01	0.994	1.09	0.883	0.713	1.16
NCI-H1651	0.913	0.993	1.02	0.854	0.602	0.649	0.696	0.566	0.418	0.429	0.485	0.367	0.302	1.08	1.05	0.854	0.65	1.06
NCI-H1666	0.909	1.12	0.816	0.471	0.6	0.591	0.6	0.576	0.538	0.705	0.886	0.714	0.768	0.861	1.14	0.987	0.792	1.18
